{"source": "patent US20160278376A1", "about": "(priority 2013, published 2016)", "key": {"[1]": {"tested_on": "E. coli Stratagene strain “Solopack”", "test": "Paper disc inhibition assay on E. coli lawn", "type": "cell-based", "details": "20 μl drops without dilution (100% strength) on 6 mm discs; 24 hrs", "description": "FIG. 1. Effect of Carvacrol, Cinnamaldehyde and Geraniol against E. coli cells. Twenty microliter drops of three chemicals (at 100% strength) were placed on paper assay discs on top of E. coli lawn. Control disc included a solution of 70% ethanol without any added essential oil. Dotted line circles indicate zone of inhibition. Photo taken at 24 hrs after plating.\nThe essential oils cinnamadehyde (Aldrich, W228605; ≧98% purity), carvacrol (Aldrich, W224502; ≧98% purity) and geraniol (Aldrich, 163333; 98% purity) were purchased Sigma-Aldrich (St. Louis, Mo.). A single colony of E. coli Stratagene strain “Solopack” was inoculated in 5 ml of Luria Broth (LB) liquid medium with shaking at 37° C. overnight. Two hundred μl of the E. coli overnight cultures were placed on an LB agar plate, and spread evenly with glass beads. The bacterial culture was allowed to absorb into the LB medium. Within 30 min after absorption, 20 μl drops of the three essential oils (cinnamaldehyde, carvacrol or geraniol) were separately placed without dilution on 6 mm discs (Whatman, Cat No. 2017-006; GE healthcare Life Science) and the treated disks were placed on top of the plates with E. coli. The plates were then incubated for 24 hrs. Photos were taken at 24 hrs after plating (see FIG. 1). Experiments were repeated, with the same results."}, "[2]": {"tested_on": "L. crescens strain BT-1 (Lcr)", "type": "cell-based, Liberibacter crescens", "details": "5 days"}, "Las [3]": {"tested_on": "Las", "type": "in vivo", "details": "1.5% (w/v) in 100% DMSO"}, "Swingle rootstocks": {"tested_on": "Swingle rootstocks", "test": "Phytotoxicity of soil drench on citrus", "type": "in vivo", "description": "(§1) To further test the phytoxicity of cinnamaldehyde or carvacrol in 70% ethanol, and 70% ethanol alone on citrus plants, we applied 1% and 10% cinnamaldehyde or carvacrol (each dissolved in 70% ethanol) on Swingle rootstocks (˜6 inches to 1 foot tall) by adding sufficient liquid to soil of potted citrus to the point of run-off of the drench. We also applied 70% ethanol as control in these two methods."}, "[4]": {"tested_on": "Swingle rootstocks and sweet orange", "test": "Phytotoxicity of foliar spray / leaf painting on citrus", "type": "in vivo", "description": "as §1, with “To” for “To further”, “1% (w/v)” for “1%”, “10% (w/v)” for “10%”, “spraying” for “adding sufficient liquid to soil of potted citrus”, “spray and also sweet orange (˜3 foot tall) by painting one or both sides of a portion of the leaf surface.” for “drench.”"}, "Las [5]": {"tested_on": "Las", "type": "in vivo"}, "[6]": {"tested_on": "Hamlin sweet orange trees grafted onto Swingle rootstock", "details": "in vivo"}, "Lcr": {"tested_on": "Lcr", "test": "microbe, parasite or virus in culture", "type": "cell-based", "details": "Liberibacter crescens, read-out: Minimum Inhibitory Concentration (MIC)"}, "Las [7]": {"tested_on": "Las", "type": "in vivo", "details": "1% (w/v) in 70% ethanol, foliar spray to run off; 1-2 weeks later, remained positive for at least several months; positive = Ct ≤ 35"}, "[8]": {"details": "1% in 70% ethanol (carvacrol: 8 mg/ml (1%), observable by 60 hrs), potted Swingle rootstocks"}, "[9]": {"details": "10% w/v in 70% ethanol, chlorosis and leaf curling, but not defoliation"}, "[10]": {"details": "1% (w/v) in 70% ethanol, sprayed to run-off on Swingle rootstocks, painted on sweet orange leaves, carvacrol effect observable by 24 hours"}, "[11]": {"details": "20 μl at 2 mg/ml in 70% ethanol on 6 mm discs"}}, "note": "Where two headings read alike, the source gives them in different places."}
{"smiles": "CC(C)=CCC/C(C)=C/CO", "note": "[geraniol, reference compound]", "values": [{"measurement": "inhibition of the growth of E. coli (zone of inhibition)", "setting": "[1]", "result": "inhibitory"}, {"measurement": "inhibition of the growth of Lcr (zone of inhibition)", "setting": "[2]; 20 μl of two-fold dilutions 2 mg/ml to 0.125 mg/ml in 70% ethanol on 6 mm discs", "result": "not inhibitory"}]}
{"smiles": "O=C/C=C/c1ccccc1", "note": "[cinnamaldehyde]", "values": [{"measurement": "PCR test for Las in new shoots", "setting": "Las [3]; 2 x 20 ml trunk injection, first tests about 3 weeks after defoliation", "result": "completely negative"}, {"measurement": "weekly PCR tests for Las over 9 months", "setting": "Las [3]; trunk injection, thus cured", "result": "remained completely PCR negative"}, {"measurement": "inhibition of the growth of E. coli (zone of inhibition)", "setting": "[1]", "result": "more inhibitory than geraniol"}, {"measurement": "phytotoxicity to citrus, soil drench", "setting": "Swingle rootstocks; [8]", "result": "not at all phytotoxic"}, {"measurement": "phytotoxicity to citrus, soil drench", "setting": "Swingle rootstocks; [9]", "result": "moderately phytotoxic"}, {"measurement": "phytotoxicity to citrus, foliar application", "setting": "[4]; [10]", "result": "not at all phytotoxic"}, {"measurement": "phytotoxicity to citrus, foliar application", "setting": "[4]; [9]", "result": "moderately phytotoxic"}, {"measurement": "inhibition of the growth of Lcr (zone of inhibition)", "setting": "[2]; [11]", "result": "strong inhibition"}, {"measurement": "level down to which inhibitory to Lcr in the disc tests", "setting": "[2]; two-fold serial dilutions in 70% ethanol on 6 mm discs", "result": 1, "unit": "mg/mL"}, {"measurement": "PCR test for Las", "setting": "Las [5]; 0.3% in 50% DMSO, foliar spray to run off", "result": "remained infected"}, {"measurement": "PCR test for Las in new shoots", "setting": "Las [5]; 1.5% in 50% DMSO, foliar spray to run off, first tests about 3 weeks after defoliation", "result": "completely Las negative"}, {"measurement": "outcome of weekly qPCR tests for Las over nine months", "setting": "Las [5]; 1.5% in 50% DMSO, foliar spray, no detectable Liberibacter infection and no citrus greening symptoms", "result": "cured"}, {"measurement": "effect on foliage of treated trees", "setting": "[6]", "result": "completely defoliated"}, {"measurement": "MIC", "setting": "Lcr", "result": 5, "unit": "µg/mL"}, {"measurement": "qPCR test for Las after treatment", "setting": "Las [7]", "result": "qPCR positive"}]}
{"smiles": "Cc1ccc(C(C)C)cc1O", "note": "[carvacrol, reference compound]", "values": [{"measurement": "inhibition of the growth of E. coli (zone of inhibition)", "setting": "[1]", "result": "more inhibitory than cinnamaldehyde"}, {"measurement": "phytotoxicity to citrus, soil drench", "setting": "Swingle rootstocks; [8]", "result": "highly phytotoxic"}, {"measurement": "phytotoxicity to citrus, foliar application", "setting": "[4]; [10]", "result": "highly phytotoxic"}, {"measurement": "inhibition of the growth of Lcr (zone of inhibition)", "setting": "[2]; [11]", "result": "slight inhibition"}]}
